How the values were obtained:
[1] = tested on: Zygosaccharomyces bailii (yeast); test: Challenge test with yeasts in MOS / MAS; format: cell-based; conditions: for Week 0 (Log cfu/g) / Week 1 (Log cfu/g) / Week 2 (Log cfu/g) / Week 3 (Log cfu/g) / Week 4 (Log cfu/g): 0.10%
Procedure: (§1) Target microorganisms used for the challenge tests (CT) were Zygosaccharomyces bailii (yeast), Aspergillus niger (mould), Penicillium nalgiovense (mould) and Eurotium amstelodami (mould).
Stock culture of the yeast was revived on MEB. The inoculated broths were incubated at 30° C. for 48-72 hours with constant swirling. The broth cultures were further sub-cultured in the MEB and incubated similarly at 30° C. for 48-72 hours with constant swirling. The final broth cultures were then analyzed for total yeast counts on MEA plate as well as for microbial contamination on PCA by spread plat 0.1-0.5 ml of suspension onto the agar plates respectively. Before the challenge test is initiated, the broth inoculated with yeast was diluted aseptically with sterile Tryptone Salt 0.1% to the desired level such that the inoculation level in the product would be 2-3 log of colony-forming-units (cfu) of yeast per gram (Cfu: colony forming units).
Challenge Test with yeasts was according to the following steps: 1) Add 100 g of MOS into a 250 ml sterile Schott bottle with screw-cap cover; 2) Add 0.1 ml to 2 ml of yeast (Z. bailii) inoculum to meet the target inoculum of 10^2 to 10^3 cfu/g of MOS into the 100 g MOS and shake to mix well; 3) Pour 35 g of the inoculated MOS into two 150 ml sterile disposable polypropylene container with screw-cap cover; 4) Pipette 1 g of inoculated MOS into 9 ml sterile Tryptone Salt 0.1% diluent and vortex. Perform this in duplicate; 5) Plate 0.1 ml to 0.5 ml of inoculated Tryptone Salt 0.1% onto MEA at appropriate dilutions by Spread Plate Method. Incubate the plates at 30° C. for 3 days for the enumeration of the initial yeast count; 6) Incubate the inoculated MOS in 150 ml containers at 30° C. for a week; 7) After one week, repeat steps 4 to 6 for the weekly monitoring of Z. bailii growth behavior in MOS. Perform the monitoring for a period of 4 weeks; 8) The control was prepared by repeating steps 3 to 7 without using any inoculum.
(§2) The method for producing MAS was the same as for the MOS production in experiment 4. The preparation of the microorganism cultures as well as the challenge tests were identical to the ones described in experiment 4 as well.

[2] = tested on: Aspergillus niger (mould); test: Challenge test with moulds in MOS / MAS; format: cell-based; conditions: for Week 0 (Log cfu/g) / Week 1 (Log cfu/g) / Week 2 (Log cfu/g) / Week 3 (Log cfu/g) / Week 4 (Log cfu/g): 0.10%; for mould growth: KS 0.10%; for Week 1 (Log cfu/g): key: VG: growth; NVG: no growth; for Week 2 (Log cfu/g): key: VG: growth; NVG: no growth; for Week 3 (Log cfu/g): key: VG: growth; NVG: no growth; for Week 4 (Log cfu/g): key: VG: growth; NVG: no growth
Procedure: as §1
Stock culture of the mould (mould spores suspended in Tryptone Salt 0.1% diluent) was revived on RBA plates by doing a 3-point inoculation. The inoculated RBA plates were incubated at 30° C. for 36 hours or until the colonies sporulated. The spores were then aseptically sub-cultured onto PDA plates for mass harvesting of the spores. The inoculated PDA plates were then incubated for 30° C. for 36 hours or until the colonies sporulated. Then, the spores were aseptically harvested with a sterile cotton swabs and suspended in sterile Tryptone Salt 0.1% diluent. The suspensions were analyzed for mould spore counts on DG18 plates as well as for microbial contamination on PCA with Cycloheximide by spread plating 0.1-0.5 ml of suspension onto the agar plates respectively. Before the challenge test is initiated, the suspension inoculated with the mould spores was diluted aseptically with sterile Tryptone Salt 0.1% to the desired level such that the inoculation level in the product would be 2-3 log of colony-forming-units (cfu) of moulds per gram of product.
Challenge Test with moulds was according to the following steps: 1) Add 100 g of MOS into a 250 ml sterile Schott bottle with screw-cap cover; 2) Add 0.1 to 2 ml of mould (A. niger/P. nalgiovence/E. amstelodami) inoculum to meet the target inoculum of 10^2-10^3 cfu/g of MOS into the 100 g MOS and shake to mix well; 3) Pour 35 g of the inoculated MOS into a petri dish. Perform this in duplicate; 4) Pipette 1 g of inoculated MOS from the Schott bottle into 9 ml sterile Tryptone Salt 0.1% diluents and vortex. Perform this in duplicate; 5) Plate 0.1-0.5 ml of inoculated Tryptone Salt 0.1% onto DG18 plates at appropriate dilutions by Spread Plate Method. Incubate the agar plates at 25° C. for 5 days to enumerate the initial mould count; 6) Incubate the inoculated MOS in petri dishes at 30° C. for a week. Monitor for mould growth by visual observation after one week. Perform this mould growth monitoring for a period of 4 weeks; 7) The control was prepared by repeating steps 3 to 6 without using any inoculum. The control was plated onto PCA with Cycloheximide plates.
as §2

[3] = MAGGI Abalone Sauce, age 0 month
[4] = MAGGI Abalone Sauce, age 1 month
[5] = MAGGI Abalone Sauce, age 3 month
[6] = MAGGI Abalone Sauce, age 6 month
[7] = MAGGI Abalone Sauce, age 10 month
[8] = MAGGI Abalone Sauce, age 12 month
[9] = MAGGI Oyster Sauce, age 0 month

C/C=C/C=C/C(=O)[O-].[K+] [KS, potassium sorbate]
Week 0 (Log cfu/g) [1, 3]: <1.00 Log cfu/g
Week 1 (Log cfu/g) [1, 3]: <1.00 Log cfu/g
Week 2 (Log cfu/g) [1, 3]: <1.00 Log cfu/g
Week 3 (Log cfu/g) [1, 3]: <1.00 Log cfu/g
Week 4 (Log cfu/g) [1, 3]: <1.00 Log cfu/g
Week 0 (Log cfu/g) [1, 4]: <1.00 Log cfu/g
Week 1 (Log cfu/g) [1, 4]: <1.63 Log cfu/g
Week 2 (Log cfu/g) [1, 4]: <1.00 Log cfu/g
Week 3 (Log cfu/g) [1, 4]: <1.00 Log cfu/g
Week 4 (Log cfu/g) [1, 4]: <1.00 Log cfu/g
Week 0 (Log cfu/g) [1, 5]: 2.96 Log cfu/g
Week 1 (Log cfu/g) [1, 5]: <1.00 Log cfu/g
Week 2 (Log cfu/g) [1, 5]: <1.00 Log cfu/g
Week 3 (Log cfu/g) [1, 5]: <1.00 Log cfu/g
Week 4 (Log cfu/g) [1, 5]: <1.00 Log cfu/g
Week 0 (Log cfu/g) [1, 6]: 2.13 Log cfu/g
Week 1 (Log cfu/g) [1, 6]: <1.00 Log cfu/g
Week 2 (Log cfu/g) [1, 6]: <1.00 Log cfu/g
Week 3 (Log cfu/g) [1, 6]: <1.00 Log cfu/g
Week 4 (Log cfu/g) [1, 6]: <1.00 Log cfu/g
Week 0 (Log cfu/g) [1, 7]: 4.43 Log cfu/g
Week 1 (Log cfu/g) [1, 7]: <2.00 Log cfu/g
Week 2 (Log cfu/g) [1, 7]: <1.00 Log cfu/g
Week 3 (Log cfu/g) [1, 7]: <1.00 Log cfu/g
Week 4 (Log cfu/g) [1, 7]: <1.00 Log cfu/g
Week 0 (Log cfu/g) [1, 8]: 2.84 Log cfu/g
Week 1 (Log cfu/g) [1, 8]: 1.72 Log cfu/g
Week 2 (Log cfu/g) [1, 8]: <1 Log cfu/g
Week 3 (Log cfu/g) [1, 8]: <1 Log cfu/g
Week 4 (Log cfu/g) [1, 8]: <1 Log cfu/g
yeast growth ([1]; MAGGI Abalone Sauce, up to 12 months, KS 0.10%, clove leaf oil 0.06 wt % and 0.15 wt %): not detected
Week 0 (Log cfu/g) [1, 9]: 3.544 Log cfu/g
Week 1 (Log cfu/g) [1, 9]: <1.00 Log cfu/g
Week 2 (Log cfu/g) [1, 9]: <1.00 Log cfu/g
Week 3 (Log cfu/g) [1, 9]: <1.00 Log cfu/g
Week 4 (Log cfu/g) [1, 9]: <1.00 Log cfu/g
Week 0 (Log cfu/g) [2, 3]: 1.9 Log cfu/g
Week 1 (Log cfu/g) [2, 3]: NVG
Week 2 (Log cfu/g) [2, 3]: NVG
Week 3 (Log cfu/g) [2, 3]: NVG
Week 4 (Log cfu/g) [2, 3]: NVG
Week 0 (Log cfu/g) [2, 4]: 1.15 Log cfu/g
Week 1 (Log cfu/g) [2, 4]: NVG
Week 2 (Log cfu/g) [2, 4]: NVG
Week 3 (Log cfu/g) [2, 4]: NVG
Week 4 (Log cfu/g) [2, 4]: NVG
Week 0 (Log cfu/g) [2, 5]: 2.19 Log cfu/g
Week 1 (Log cfu/g) [2, 5]: NVG
Week 2 (Log cfu/g) [2, 5]: NVG
Week 3 (Log cfu/g) [2, 5]: NVG
Week 4 (Log cfu/g) [2, 5]: NVG
Week 0 (Log cfu/g) [2, 6]: 2.16 Log cfu/g
Week 1 (Log cfu/g) [2, 6]: NVG
Week 2 (Log cfu/g) [2, 6]: NVG
Week 3 (Log cfu/g) [2, 6]: NVG
Week 4 (Log cfu/g) [2, 6]: NVG
Week 0 (Log cfu/g) [2, 7]: 3.67 Log cfu/g
Week 1 (Log cfu/g) [2, 7]: NVG
Week 2 (Log cfu/g) [2, 7]: NVG
Week 3 (Log cfu/g) [2, 7]: NVG
Week 4 (Log cfu/g) [2, 7]: NVG
Week 0 (Log cfu/g) [2, 8]: 2.96 Log cfu/g
Week 1 (Log cfu/g) [2, 8]: NVG
Week 2 (Log cfu/g) [2, 8]: NVG
Week 3 (Log cfu/g) [2, 8]: NVG
Week 4 (Log cfu/g) [2, 8]: NVG
mould growth ([2]; MAGGI Abalone Sauce, up to 12 months, clove leaf oil 0.06 wt % and 0.15 wt %): not detected
mould growth ([2]; MAGGI Oyster Sauce, garlic EO 0.06 wt % and 0.12 wt %): not detected
Week 0 (Log cfu/g) [2, 9]: 3.114 Log cfu/g
Week 1 (Log cfu/g) [2, 9]: NVG
Week 2 (Log cfu/g) [2, 9]: NVG
Week 3 (Log cfu/g) [2, 9]: NVG
Week 4 (Log cfu/g) [2, 9]: NVG

Source: patent US8859018B2, “Delivery carrier for antimicrobial essential oils” (Nestec S.A., priority 2010, dated 2014)
